Our source for the Ki values is BindingDB's records for doi:10.7270/Q2RB7317 (Nmmlsc, 2009).

The target in this assay is Ras-related C3 botulinum toxin substrate 1 (Mus musculus, UniProt P63001). Description: wildtype Rac1 GTP binding inhibitors, SAR follow-up, biochemical, additional analogs, multiplex bead flow cytometry (AID 2040). Background: In flow cytometry, cells or beads pass a laser one at a time.
By Ki is commonly meant the dissociation constant of the complex between target and ligand, obtained from inhibition or displacement. Low values mean higher affinity, high ones lower affinity. With `O=C1Nc2c(F)cccc2C1=C1Nc2ccccc2C1=O`, the affinity, expressed as Ki, was 3230 nM.
For `O=C1NC(=S)N/C1=C1\C(=O)Nc2ccccc21` [(3Z)-3-(5-oxo-2-sulfanylideneimidazolidin-4-ylidene)-1H-indol-2-one], the Ki worked out at 160 nM.
The compound `O=C1NC(=O)/C(=C2/C(=O)Nc3ccccc32)N1` displayed a Ki of 250 nM.
To `O=C1Nc2ccc(Br)cc2C1=C1Nc2ccccc2C1=O` belongs 1510 nM.
